In patent US10766869B2, “Triazoles for the treatment of demyelinating dieases” (Vertex Pharmaceuticals Incorporated, priority 2015, dated 2020):
Where two headings read alike, the source gives them in different places.

System: primary rat mixed cortical cells
Assay: In vitro myelination assay (MBP positive myelin strands, fold myelin pixels above background)
Assay type: cell-based
Conditions: Rattus norvegicus; for fold induction at 1 µM: 1.0 μM compound; for fold induction at 10 µM: 10.0 μM compound
From the text: In Vitro Myelination Assay
Compounds were screened for their ability to induce myelination using a primary rat mixed cortical cell culture assay, which contains neurons, oligodendrocyte precursor cells, oligodendrocytes, astrocytes and microglia. The assay quantifies myelination by measuring myelin basic protein (MBP) immunofluorescent positive myelin strands from images taken using a Cellomics Array Scan (model Arrayscan VTI HCS Reader) or a Molecular Devices Image Xpress (model IXM XL) high content imager. The myelin strands were quantitated using a custom created myelin detection software program. Test compounds were dissolved in DMSO to make a 10 mM initial stock solution. Dilutions were made in myelination medium to obtain the final solutions for the assay and were tested in primary rat mixed cortical cells at selected doses.
Primary rat mixed cortical cells were prepared from harvested cerebral cortices from postnatal day 1 (P1) rats (P1 Rat CD® IGS pups) were purchased from Charles River) in Complete Dissociation Medium, wherein the meninges were removed and the cortical tissue chopped with a razor blade into ˜1 mm^3 pieces. Tissue from 1-3 pups was collected and placed into 15 ml conical tubes in a total volume of 5 ml of Complete Dissociation Medium. Activated papain (3 ml) was added to each 15 ml conical tube and tissue was incubated at 37° C. for 30 minutes. After the 30 minute incubation, DNase (Sigma D4527; 75 μl of a 1 mg/ml stock) was added to each tube, followed by mechanical trituration using a 2 ml serological pipette and autopipettor to gently dissociate the tissue. Following trituration, larger tissue pieces were allowed to settle by gravity, and the supernatant containing dissociated cells was transferred to a 50 ml conical tube with 4 ml of trypsin inhibitor. Cells were pelleted by centrifugation, resuspended in myelination medium and filtered through a 40 μm filter. Cells were then seeded in 96-well plates (BD Biosciences, Black, PDL-coated, Cat. No. 356640) at 87,500-95,000 cells/well in a final volume of 200 μl of Myelination Medium in the presence or absence of compound and cultured for 14 days in a humidified 37° C. incubator with 5% CO2. Half the medium was removed and replaced with fresh medium containing 1× compound on days 6 and 10. Using a Biotek automatic plate washer (model Biomek® FXP Laboratory Automation Workstation), cells were fixed with 4% paraformaldehyde on day 14, washed with PBS and blocked in 5% normal goat serum (Vector Laboratories, S-1000) in 0.1% PBS-TritonX-100 (PBST) for 1 hour. Cells were stained with 1:500 anti-MBP (Covance, cat # SMI99) primary antibody in 1% normal goat serum in 0.1% PBST for 2 hours at room temperature followed by 2 washes with PBST. A final incubation in secondary antibody (1:1000, Invitrogen, Alexa-488 anti-mouse IgG2b) and 1:10,000 Hoechst dye in 1% normal goat serum in 0.1% PBST was performed for 2 hours at room temperature. Plates were washed with PBS and then scanned on a Cellomics Array Scan using a 10× objective (25 images per well) or the Image Xpress using a 10× objective (9 image per well). Images were analyzed using Vertex myelin detection software (described below) to quantify total MBP myelin pixels per well. Fold myelin pixels above background at two concentrations (1.0 μM and 10.0 μM) relative to baseline of no added compound are reported below in Table 4. Standard deviation for each compound concentration was calculated using all replicates and using a standard deviation formula commonly used in the art.
One of skill in the art would recognize that for this type of primary neuronal mixed cell assay variability between different assay runs is to be expected even though the protocol is the same for each assay run. For instance, variability may be due to small differences in cell viability, cell density, age of the animals, etc.
Vertex Myelin Detection Software: […]

[1] = relative to baseline of no added compound, read-out: Fold myelin pixels above background, 1.0 μM
[2] = relative to baseline of no added compound, read-out: Fold myelin pixels above background, 10.0 μM
[3] = relative to baseline of no added compound, read-out: Fold myelin pixels above background
[4] = read-out: Fold myelin pixels above background relative to baseline of no added compound

Compound `Cc1cc(Nc2ncn(-c3cc(F)cc(F)c3)n2)cc([C@H]2CCN(C3COC3)C[C@@H]2O)c1` (racemic) [Compound 282, (3R,4R)-4-[3-[[1-(3,5-difluorophenyl)-1,2,4-triazol-3-yl]amino]-5-methyl-phenyl]-1-(oxetan-3-yl)piperidin-3-ol; (3S,4S)-4-[3-[[1-(3,5-difluorophenyl)-1,2,4-triazol-3-yl]amino]-5-methyl-phenyl]-1-(oxetan-3-yl)piperidin-3-ol] has a fold induction at 1 µM [1] of 10 to 100 and a fold induction at 10 µM [2] of 10 to 100.
Work on `Cc1cc(Nc2ncn(-c3cc(F)cc(F)c3)n2)cc([C@@H]2CCN(C3COC3)C2)c1` (single isomer, unassigned) [Compound 92] yielded a fold induction at 1 µM [1] of 1000 to 10000 and a fold induction at 10 µM [2] of 100 to 1000.
Work on `Cc1cc(Nc2ncn(-c3cc(F)cc(F)c3)n2)cc([C@@]2(O)CCN(C3COC3)C2)c1` (single isomer, unassigned) [Compound 101] yielded a fold induction at 1 µM [1] of 1000 to 10000 and a fold induction at 10 µM [2] of 1 to 10.
Compound `Cc1cc(Nc2ncn(-c3cc(F)cc(F)c3)n2)cc([C@H]2CCN(C3COC3)C2)c1` (single isomer, unassigned) [Compound 473] has a fold induction at 1 µM [3] of 100 to 1000 and a fold induction at 10 µM [3] of 1 to 10.
Work on `Cc1cc(Nc2ncn(-c3cnccn3)n2)cc([C@@]2(C)CNC(=O)O2)c1` (single isomer, unassigned) [Compound 603] yielded a fold induction at 1 µM [3] of 10 to 100 and a fold induction at 10 µM [3] of 10 to 100.
`Cc1cc(Nc2ncn(-c3cc(F)cc(F)c3)n2)cc([C@@]2(C)CN(C)C(=O)O2)c1` (single isomer, unassigned) [Compound 611] gave a fold induction at 1 µM [3] of 10 to 100 and a fold induction at 10 µM [3] of 1 to 10.
`Cc1cc(Nc2ncn(-c3cc(F)cc(F)c3)n2)cc([C@H]2CN(C3COC3)CCO2)c1` (single isomer, unassigned) [Compound 623] gave a fold induction at 1 µM [3] of 10 to 100 and a fold induction at 10 µM [3] of 1 to 10.
`Cc1cc(Nc2ncn(-c3ccc(F)c(F)c3)n2)cc(O[C@H]2CCCN(C3COC3)C2)c1` (single isomer, unassigned) [Compound 632] was tested, and the fold induction at 1 µM [3] was 10 to 100 and the fold induction at 10 µM [3] was at most 1.
Compound `Cc1cc(Nc2ncn(-c3cc(F)cc(F)c3)n2)cc(N[C@H]2C[C@H](N3CCOCC3)C2)c1` (single isomer, unassigned) [Compound 649, N1-[1-(3,5-difluorophenyl)-1,2,4-triazol-3-yl]-5-methyl-N3-(3-morpholinocyclobutyl)benzene-1,3-diamine] has a fold induction at 1 µM [3] of 10 to 100 and a fold induction at 10 µM [3] of at most 1.
`Cc1cc(Nc2ncn(-c3cc(F)cc(F)c3)n2)cc([C@]2(C)CNC(=O)O2)c1` (single isomer, unassigned) [Compound 655] was tested, and the fold induction at 1 µM [3] was 10 to 100 and the fold induction at 10 µM [3] was at most 1.
`Cc1cc(Nc2ncn(-c3ccc(F)c(F)c3)n2)cc(O[C@@H]2CCCN(C3COC3)C2)c1` (single isomer, unassigned) [Compound 665] gave a fold induction at 1 µM [3] of 10 to 100 and a fold induction at 10 µM [3] of 1 to 10.
Work on `Cc1cc(Nc2ncn(-c3cc(F)cc(F)c3)n2)cc([C@@]2(C)CN(C3COC3)CCO2)c1` (single isomer, unassigned) [Compound 667] yielded a fold induction at 1 µM [3] of 10 to 100 and a fold induction at 10 µM [3] of 1 to 10.
In the case of `Fc1cc(F)cc(-n2cnc(Nc3cc(C(F)(F)F)cc(N4CCN([C@@H]5CCOC5)CC4)n3)n2)c1` (single isomer, unassigned) [Compound 672], the fold induction at 1 µM [3] is reported as 1 to 10 and the fold induction at 10 µM [3] is reported as 1 to 10.
`Cc1cc(Nc2ncn(-c3cc(F)cc(F)c3)n2)nc(N2CCN([C@H]3CCOC3)CC2)c1` (single isomer, unassigned) [Compound 673] was tested, and the fold induction at 1 µM [3] was 10 to 100 and the fold induction at 10 µM [3] was 100 to 1000.
`Cc1cc(Nc2ncn(-c3cc(F)cc(F)c3)n2)cc([C@@]2(C)CNC(=O)O2)c1` (single isomer, unassigned) [Compound 679] gave a fold induction at 1 µM [3] of 10 to 100 and a fold induction at 10 µM [3] of 1 to 10.
`Cc1cc(Nc2ncn(-c3cnccn3)n2)cc([C@]2(C)CNC(=O)O2)c1` (single isomer, unassigned) [Compound 682] showed a fold induction at 1 µM [3] of 10 to 100 and a fold induction at 10 µM [3] of 10 to 100.
Work on `Cc1cc(Nc2ncn(-c3cc(F)cc(F)c3)n2)cc(N2CC(N3CCO[C@H](C)C3)C2)c1` (single isomer, unassigned) [Compound 696] yielded a fold induction at 1 µM [3] of 10 to 100 and a fold induction at 10 µM [3] of 1 to 10.
Compound `Cc1cc(Nc2ncn(-c3cc(F)cc(F)c3)n2)cc(O[C@H]2CCCN(C3COC3)C2)c1` (single isomer, unassigned) [Compound 700] has a fold induction at 1 µM [3] of 10 to 100 and a fold induction at 10 µM [3] of at most 1.
With `Cc1cc(Nc2ncn(-c3cc(F)cc(F)c3)n2)nc(N2CCN([C@H]3CCOC3)CC2)c1` (single isomer, unassigned) [Compound 740] the fold induction at 1 µM [3] was 10 to 100 and the fold induction at 10 µM [3] was 10 to 100.
`Cc1cc(Nc2ncn(-c3cc(F)cc(F)c3)n2)cc(O[C@@H]2CCCN(C3COC3)C2)c1` (single isomer, unassigned) [Compound 748] was tested, and the fold induction at 1 µM [3] was 10 to 100 and the fold induction at 10 µM [3] was at most 1.
For `Cc1cc(Nc2ncn(-c3cc(F)cc(F)c3)n2)cc([C@]2(C)CN(C3COC3)CCO2)c1` (single isomer, unassigned) [Compound 750], the fold induction at 1 µM [3] was 1 to 10 and the fold induction at 10 µM [3] was 10 to 100.
In the case of `Cc1cc(Nc2ncn(-c3cc(F)cc(F)c3)n2)cc([C@@H]2CN(C3COC3)CCO2)c1` (single isomer, unassigned) [Compound 751], the fold induction at 1 µM [3] is reported as 10 to 100 and the fold induction at 10 µM [3] is reported as at most 1.
`Fc1cc(F)cc(-n2cnc(Nc3cc(C(F)(F)F)cc(N4CCN([C@H]5CCOC5)CC4)n3)n2)c1` (single isomer, unassigned) [Compound 787] showed a fold induction at 1 µM [4] of 1 to 10 and a fold induction at 10 µM [4] of 10 to 100.
In the case of `Cc1cc(Nc2ncn(-c3ccc(F)c(F)c3)n2)cc(N[C@H]2C[C@H](N3CCOCC3)C2)c1` (single isomer, unassigned) [Compound 792, N1-[1-(3,4-difluorophenyl)-1,2,4-triazol-3-yl]-5-methyl-N3-(3-morpholinocyclobutyl)benzene-1,3-diamine], the fold induction at 1 µM [4] is reported as 10 to 100 and the fold induction at 10 µM [4] is reported as at most 1.
`Cc1cc(Nc2ncn(-c3cc(F)cc(F)c3)n2)cc([C@]2(C)CN(C)C(=O)O2)c1` (single isomer, unassigned) [Compound 796] was tested, and the fold induction at 1 µM [4] was 10 to 100 and the fold induction at 10 µM [4] was at most 1.
Work on `Cc1cc(Nc2ncn(-c3cc(F)cc(F)c3)n2)cc(N2CC(N3CCOC[C@@H]3C)C2)c1` (single isomer, unassigned) [Compound 800] yielded a fold induction at 1 µM [4] of 10 to 100 and a fold induction at 10 µM [4] of 10 to 100.
`Cc1cc(Nc2ncn(-c3ccc(F)c(F)c3)n2)cc(N[C@H]2C[C@@H](N3CCOCC3)C2)c1` (single isomer, unassigned) [Compound 826, N1-[1-(3,4-difluorophenyl)-1,2,4-triazol-3-yl]-5-methyl-N3-(3-morpholinocyclobutyl)benzene-1,3-diamine] was tested, and the fold induction at 1 µM [4] was 10 to 100 and the fold induction at 10 µM [4] was at most 1.
Compound `Cc1cc(Nc2ncn(-c3cc(F)cc(F)c3)n2)cc(N[C@H]2C[C@@H](N3CCOCC3)C2)c1` (single isomer, unassigned) [Compound 861, N1-[1-(3,5-difluorophenyl)-1,2,4-triazol-3-yl]-5-methyl-N3-(3-morpholinocyclobutyl)benzene-1,3-diamine] has a fold induction at 1 µM [4] of 10 to 100 and a fold induction at 10 µM [4] of at most 1.
